Measurements: article PMC10892375, “Determination of the Cannabinoid CB1 Receptor’s Positive Allosteric Modulator Binding Site through Mutagenesis Studies” (Pharmaceuticals, 2024)
Entries after “also recorded” stand apart in the source; their conditions may differ.

Experiments:
Format in all cases: cell-based
hCB1 mutant I169A^2.56 = biological target: T1, hCB1 mutant I169A^2.56 (Homo sapiens, UniProt P21554, I169A); assay: pIRES G protein dissociation BRET assay, I169A mutant; conditions: for G protein dissociation, AUC of 10 μM compound (maximal response): 10 μM ligand alone; for Allosteric agonism: G protein dissociation in the absence of an orthosteric ligand: 10 μM; for Allosteric agonism: G protein dissociation in the absence of an orthosteric ligand / Allosteric modulation of CP55940 (PAM activity): result in words; for Allosteric modulation of CP55940 (PAM activity): 10 μM allosteric ligand
T1 construct: expressed in transfected cells; host or cells: HEK293
T1 sequence (P21554 whole entry I169A): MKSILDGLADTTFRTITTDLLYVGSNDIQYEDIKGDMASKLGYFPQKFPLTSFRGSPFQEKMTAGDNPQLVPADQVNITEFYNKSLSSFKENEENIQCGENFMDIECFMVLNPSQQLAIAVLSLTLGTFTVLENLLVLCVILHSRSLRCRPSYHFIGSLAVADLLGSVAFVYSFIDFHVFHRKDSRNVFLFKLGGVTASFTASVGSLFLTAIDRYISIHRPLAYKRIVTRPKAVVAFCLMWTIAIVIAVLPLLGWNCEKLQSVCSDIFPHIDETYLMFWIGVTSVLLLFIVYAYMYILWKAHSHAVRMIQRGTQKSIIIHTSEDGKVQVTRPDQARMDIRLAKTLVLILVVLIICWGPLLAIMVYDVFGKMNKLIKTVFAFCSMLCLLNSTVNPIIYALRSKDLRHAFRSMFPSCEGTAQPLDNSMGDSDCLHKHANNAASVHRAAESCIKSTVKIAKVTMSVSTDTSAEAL
Experimental: (§1) Mutagenesis studies using the pIRES G protein dissociation assay were performed using human embryonic kidney 293 (HEK293) wild-type cells transiently transfected with pplss-3HA-hCB1 [31] or modified receptor. All cells were cultured in Dulbecco’s Modified Eagle’s Medium (DMEM) supplemented with 10% fetal bovine serum (FBS), grown in […] vented-cap flasks, and maintained in a 37° C incubator at 5% CO2.
(§2) Mutants of pplss-3HA-hCB1 (WT, pEF-V4-HisA (pEF4a) construct) were generated using a modified QuikChange® (Stratagene, San Diego, CA, USA) site-directed mutagenesis approach using KAPA HiFi Hotstart Polymerase (KAPA Biosystems, Roche, Basel, Switzerland). Briefly, single-stranded primers used to modify one or two base pairs within the target amino acid using PCR were purchased from Integrated DNA Technologies (IDT, Coralville, IA, USA). All pplss-hCB1 mutants were generated using the pplss-3HA-hCB1 pEF4a as parental DNA. PCR products were generated using recommended cycling conditions and treated with Dpn1 (New England Biolabs, Ipswich, MA, USA) overnight at 37° C to digest methylated parental DNA. PCR products were electrophoresed and run on an agarose gel (1% (w.v^−1) agarose, HydraGene, Piscataway, NJ, USA) containing 0.25 μg/mL ethidium bromide (Sigma-Aldrich, St. Louis, MO, USA). Gels were run in 40 mM TRIS-acetate buffer containing […] (pH 8.3) at 100 V for 30 min, maximum current and included a 1kb+ DNA ladder (Invitrogen, Thermo Fisher Scientific, Carlsbad, CA, USA) for reference. Gels were imaged using an UVTech Alliance Q9 Mini transilluminator (UVTech Alliance, Cambridge, UK). Digested products were then used to transform NEB 5α competent E. coli cells in accordance with manufacturer’s instructions. Briefly, transformed PCR products were grown overnight on 8.5 mL Luria Broth agar plates (containing 100 μg/mL ampicillin) at 37° C. Single bacterial colonies were picked and inoculated in Luria Broth (containing 100 μg/mL ampicillin) and grown overnight in a shaking incubator at 37° C. Plasmids were then harvested and purified using a Qiagen miniprep kit (Qiagen, Hilden, Germany) and validated using sequencing (Genetics Analysis Service, University of Otago, Dunedin, New Zealand).
(§3) Dissociation of the G protein heterotrimer, specifically Gαi1, Gβ1, and Gγ2, was investigated using a bioluminescence resonance energy transfer (BRET) assay with the pIRES biosensor first described by and adapted by.
(§4) Briefly, 3 × 10^6 WT HEK293 cells were seeded into 10 cm culture dishes (Corning, Corning, NY, USA; one dish for the control receptor and one for each modified receptor) and incubated at 37 °C for 24 h to gain 50–60% confluency. Culture medium was then replaced and transfection mixtures containing 3 μg pIRES vector and 1 μg receptor (either pplss-hCB1 or modified receptor) were prepared (4 μg total DNA). Plasmids were initially diluted in sterile Milli-Q water before being diluted in OptiMEM reduced serum medium (Thermo Fisher Scientific, Waltham, MA, USA) and combined with […] polyethylenimine (PEI)-max (1:9 DNA:PEI-max ratio) and incubated at room temperature for 20 min. Transfection mixtures were then added to cells via dropwise addition, and cells were incubated at 37 °C for 24 h. Transfected cells were lifted and plated at 50,000 cells/well into poly-d-lysine (PDL; Sigma-Aldrich) coated white 96-well CulturPlates (PerkinElmer, Waltham, MA, USA) and incubated for a further 24 h at 37 °C.
(§5) To assay, the culture medium was aspirated and cells were washed with phosphate buffered saline (PBS) and replaced with BRET assay medium (phenol red free DMEM containing 25 mM HEPES and supplemented with 1 mg/mL bovine serum albumin; BSA, MP Biomedicals, Auckland, New Zealand) for 30 min prior to drug addition (serum starve). Drugs were prepared at 10 × concentration in BRET assay medium, combined in a polypropylene V-bottom plate, and incubated at 37° C prior to drug stimulation.

hCB1 mutant K232A^4.41 = biological target: T2, hCB1 mutant K232A^4.41 (Homo sapiens, UniProt P21554, K232A); assay: pIRES G protein dissociation BRET assay, K232A mutant; conditions: for G protein dissociation, AUC of 10 μM compound (maximal response): 10 μM ligand alone
T2 construct: expressed in transfected cells; host or cells: HEK293
T2 sequence (P21554 whole entry K232A): as the sequence (P21554 whole entry I169A) above, with A169I, K232A counted along it
Experimental: as §1, §2, §3, §4, §5

hCB1 mutant F408A^8.54 = biological target: T3, hCB1 mutant F408A^8.54 (Homo sapiens, UniProt P21554, F408A); assay: pIRES G protein dissociation BRET assay, F408A mutant; conditions: for G protein dissociation, AUC of 10 μM compound (maximal response): 10 μM ligand alone
T3 construct: expressed in transfected cells; host or cells: HEK293
T3 sequence (P21554 whole entry F408A): as the sequence (P21554 whole entry I169A) above, with A169I, F408A counted along it
Experimental: as §1, §2, §3, §4, §5

[1] = in the presence of 10 μM GAT228
[2] = in the presence of 10 μM GAT229
[3] = top of the curve (maximal response)
[4] = 10 μM CP55940 in the presence of 10 μM ZCZ011

| Compound | G protein dissociation, AUC of 10 μM compound (maximal response) (hCB1 mutant I169A^2.56) | EMAX, CP55940 + 10 μM GAT228 (hCB1 mutant I169A^2.56; [1]) | EMAX, CP55940 + 10 μM GAT229 (hCB1 mutant I169A^2.56; [2]) | EMAX, CP55940 Alone (hCB1 mutant I169A^2.56; [3]) | G protein dissociation, AUC, 10 μM CP55940 + 10 μM ZCZ011 (hCB1 mutant K232A^4.41; [4]) | G protein dissociation, AUC of 10 μM compound (maximal response) (hCB1 mutant K232A^4.41) | EMAX, CP55940 + 10 μM GAT228 (hCB1 mutant K232A^4.41; [1]) | EMAX, CP55940 + 10 μM GAT229 (hCB1 mutant K232A^4.41; [2]) | EMAX, CP55940 Alone (hCB1 mutant K232A^4.41; [3]) | G protein dissociation, AUC, 10 μM CP55940 + 10 μM ZCZ011 (hCB1 mutant F408A^8.54; [4]) | G protein dissociation, AUC of 10 μM compound (maximal response) (hCB1 mutant F408A^8.54) | EMAX, CP55940 + 10 μM GAT228 (hCB1 mutant F408A^8.54; [1]) | EMAX, CP55940 + 10 μM GAT229 (hCB1 mutant F408A^8.54; [2]) | EMAX, CP55940 Alone (hCB1 mutant F408A^8.54; [3]) | Allosteric agonism: G protein dissociation in the absence of an orthosteric ligand (hCB1 mutant I169A^2.56) | Allosteric modulation of CP55940 (PAM activity) (hCB1 mutant I169A^2.56) |
| --- | --- | --- | --- | --- | --- | --- | --- | --- | --- | --- | --- | --- | --- | --- | --- | --- |
| CCCCCCC(C)(C)c1ccc([C@@H]2C[C@H](O)CC[C@H]2CCCO)c(O)c1 [CP55940] | −113.1 ± 11.7 | −117.0 ± 7.4 ∆BRET.sec | −109.7 ± 8.3 ∆BRET.sec | −110.7 ± 10.3 ∆BRET.sec | −194.9 ± 7.2 | −167.7 ± 9.6 | −181.9 ± 8.6 ∆BRET.sec | −194.9 ± 9.0 ∆BRET.sec | −160.6 ± 7.6 ∆BRET.sec | −159.7 ± 13.4 | −131.7 ± 10.4 | −148.4 ± 11.4 ∆BRET.sec | −154.0 ± 14.5 ∆BRET.sec | −128.6 ± 12.1 ∆BRET.sec | – | – |
| O=[N+]([O-])C[C@H](c1ccccc1)c1c(-c2ccccc2)[nH]c2ccccc12 [GAT228] | 30.0 ± 5.9 | – | – | – | – | −94.0 ± 10.5 | – | – | – | – | −90.3 ± 8.3 | – | – | – | abolished; also recorded: inhibited constitutive G protein dissociation | – |
| O=[N+]([O-])C[C@@H](c1ccccc1)c1c(-c2ccccc2)[nH]c2ccccc12 [GAT229] | 54.8 ± 7.5 | – | – | – | – | −134.5 ± 7.9 | – | – | – | – | −110.0 ± 8.6 | – | – | – | abolished; also recorded: inhibited constitutive G protein dissociation | neither allosteric ligand acted as a PAM |
| Cc1ccc2c(C(C[N+](=O)[O-])c3cccs3)c(-c3ccccc3)[nH]c2c1 (stereo not shown) [ZCZ011, 6-Methyl-3-(2-nitro-1-(thiophen-2-yl)ethyl)-2-phenyl-1 H-indole] | −20.0 ± 9.0 | – | – | – | – | −140.0 ± 7.3 | – | – | – | – | −116.9 ± 10.1 | – | – | – | abolished; also recorded: substantial reduction in G protein dissociation | neither allosteric ligand acted as a PAM |
